The values below come from ChEMBL document CHEMBL6127124, “Structure-Activity Relationships and Discovery of (S)-5-(tert-Butyl)-11-(difluoromethoxy)-9-methoxy-2-oxo-1,2,5,6-tetrahydropyrido[2',1':2,3]imidazo[4,5-h]quinoline-3-carboxylic Acid (AB-161), a Novel Orally Available and Liver-Centric HBV RNA Destabilizer” (J Med Chem, 2024).

A short description of data set [1]: Selectivity ratio of drug concentration in liver in Sprague-Dawley rat at 5 mg/kg, po measured for 24 hrs to EC90 for antiviral activity against HBV infected in human HepG2.2.15 cells assessed as reduction in HBsAg level. It counts as ADME, organism-based. The note with it: in vivo.
Data set [2] is described as follows: Ratio of total drug concentration in liver to plasma in Sprague-Dawley rat at 5 mg/kg, po measured for 24 hrs by LC-MS/MS analysis. It counts as ADME, organism-based. The note with it: other tissue.
Data set [3] can be described thus: Oral bioavailability in Sprague-Dawley rat at 5 mg/kg measured for 24 hrs by LC-MS/MS analysis. It counts as ADME, organism-based. The note with it: in vivo.
Data set [4] is described as follows: Cytotoxicity in human HepG2.2.15 cells by Cell Titer-Glo assay. It counts as toxicity, cell-based, HepG2 2.2.15.
Data set [5] has as its system Hepatitis B virus. In words: Antiviral activity against HBV genotype D in immuno-competent C57BL/6 mouse model of chronic HBV assessed as log10 reduction in HBsAg production at 3 mg/kg, po qd for 7 days measured 24 hrs post-last dose by EIA relative to control. The data set is classed as functional. The note with it: time 8 day.
Data set [6] is described as follows: Metabolic stability in CD-1 mouse liver microsomes assessed as clearance at 0.3 uM preincubated for 5 mins followed by NADPH addition measured upto 60 mins by LC-MS/MS analysis. The data set is classed as ADME, Microsome. The note with it: time < 65 min, read-out: CLH.
The test system of data set [7] is Hepatitis B virus. Description: Antiviral activity against HBV genotype D in immuno-competent C57BL/6 mouse model of chronic HBV assessed as log10 reduction in HBsAg production at 10 mg/kg, po qd for 7 days measured 24 hrs post-last dose by EIA relative to control. It counts as functional. The note with it: time 8 day.
Data set [8] in a line: Selectivity ratio of drug concentration in liver in CD-1 mouse at 10 mg/kg, po measured for 24 hrs to EC90 for antiviral activity against HBV infected in human HepG2.2.15 cells assessed as reduction in HBsAg level. The data set is classed as ADME, organism-based. The note with it: in vivo.
The nature of data set [9]: Oral bioavailability in CD-1 mouse at 10 mg/kg measured for 24 hrs by LC-MS/MS analysis. The data set is classed as ADME, organism-based. The note with it: in vivo.
Data set [10] in a line: AUC (0 to 24 hrs) in CD-1 mouse at 10 mg/kg, po measured for 24 hrs by LC-MS/MS analysis. The data set is classed as ADME, organism-based. The note with it: in vivo.
Data set [11] concerns Hepatitis B virus. In words: Antiviral activity against HBV infected in human HepG2.2.15 cells assessed as reduction in HBsAg level incubated for 6 days with media and compound replenishment on third day by CLIA. The data set is classed as functional, organism-based. The note with it: HepG2.2.15, 144 h.
Data set [12] can be described thus: Chemical stability of compound in PBS assessed as compound remaining measured after 6 days by HPLC UV analysis. The data set is classed as physicochemical. The note with it: buffer, 144 h; time 6 day.
Data set [13] in a line: Metabolic stability in human liver microsomes assessed as clearance at 0.3 uM preincubated for 5 mins followed by NADPH addition measured upto 60 mins by LC-MS/MS analysis. The data set is classed as ADME, Microsome. The note with it: time < 65 min, read-out: CLH.
Data set [14] in a line: Ratio of total drug concentration in liver to plasma in CD-1 mouse at 10 mg/kg, po measured for 24 hrs by LC-MS/MS analysis. The note with it: CD-1, mouse, liver and plasma. It counts as ADME, organism-based.
Data set [15] in a line: AUC (0 to 24 hrs) in Sprague-Dawley rat at 5 mg/kg, po measured for 24 hrs by LC-MS/MS analysis. The note with it: in vivo. It counts as ADME, organism-based.
Data set [16] can be described thus: Metabolic stability in Sprague-Dawley rat liver microsomes assessed as clearance at 0.3 uM preincubated for 5 mins followed by NADPH addition measured upto 60 mins by LC-MS/MS analysis. The data set is classed as ADME, Microsome. The note with it: time < 65 min, read-out: CLH.

Regarding `CC(C)(C)[C@@H]1Cc2c(nc3c(OC(F)F)cccn23)-c2[nH]c(=O)c(C(=O)O)c(O)c21`, the Ratio in data set [1] came to 1008; in [2], 4397; in [8], 92. Moreover, the bioavailability in [3] is 16%; in data set [9] it was 27%. The same compound had a CC50 in [4] of 36000 nM. The “log(activity)” value in [5] worked out at 0.32; in [7], 0.52. For the same compound, the microsomal CLint at 0.3 µM stood at 64 µL/min/mg in data set [6], 6 µL/min/mg in data set [13] and 279 µL/min/mg in [16]. Further, the exposure AUC(0-t) at 24 h in data set [10] worked out at 989 ng·h/mL; in data set [15], 209 ng·h/mL. Also, the EC50 in [11] worked out at 1.5 nM. In [11] (time 6 day), the EC90 came to 14 nM. In addition, in data set [12], the Stability result is recorded as “Unstable”. The Kp at 24 h in data set [14] was found to be 308.
